According to PubChem BioAssay (NCI):
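Briefly, cells in 96-well plates were exposed to five compound concentrations for 48 h, and endpoints were estimated by linear interpolation. GI50 = concentration required for 50% inhibition of growth. TGI is the concentration that stops growth completely.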

Tests used:
Assay in all cases: NCI anticancer screen, dose series, 48 h
MALME-3M melanoma = system: MALME-3M melanoma
UO-31 renal = system: UO-31 renal
OVCAR-4 ovarian = system: OVCAR-4 ovarian
786-0 renal = system: 786-0 renal
OVCAR-3 ovarian = system: OVCAR-3 ovarian
HOP-62 NSCLC = system: HOP-62 NSCLC
MDA-MB-231 breast = system: MDA-MB-231 breast
HS 578T breast = system: HS 578T breast
DU-145 prostate = system: DU-145 prostate

Row | SMILES | TGI (MALME-3M melanoma) | TGI (UO-31 renal) | TGI (OVCAR-4 ovarian) | TGI (786-0 renal) | TGI (OVCAR-3 ovarian) | TGI (HOP-62 NSCLC) | GI50 (MALME-3M melanoma) | GI50 (UO-31 renal) | GI50 (MDA-MB-231 breast) | TGI (MDA-MB-231 breast) | GI50 (OVCAR-4 ovarian) | GI50 (HS 578T breast) | TGI (HS 578T breast) | GI50 (786-0 renal) | GI50 (OVCAR-3 ovarian) | GI50 (HOP-62 NSCLC) | GI50 (DU-145 prostate) | TGI (DU-145 prostate)
1 | O=S1c2ccccc2N=C(c2cccs2)CC1c1ccccc1O (stereo unspecified) | > 100 µM | > 100 µM | > 100 µM | > 100 µM | > 100 µM | > 100 µM |  |  |  |  |  |  |  |  |  |  |  | 
2 | NC1=NN(c2ccccc2)C(=O)C1/C(=N\NC(=O)c1cc2ccccc2cc1O)C(=O)Nc1ccc(Cl)c(Cl)c1 (stereo unspecified) | 97.6 µM | > 100 µM | > 100 µM | > 100 µM | 54.8 µM | > 100 µM |  |  |  |  |  |  |  |  |  |  |  | 
3 | COC(=O)/C(=C1\OC(=O)C(c2ccc(Cl)cc2)=C1O)c1ccc(Cl)cc1 | 55.7 µM | 68.9 µM | > 100 µM | > 100 µM | 87.6 µM | 41.4 µM |  |  |  |  |  |  |  |  |  |  |  | 
4 | O=C1/C(=C/c2ccc(C(=O)O)cc2)CNC/C1=C\c1ccc(C(=O)O)cc1 | > 100 µM | > 100 µM | > 100 µM | > 100 µM | > 100 µM | > 100 µM |  |  |  |  |  |  |  |  |  |  |  | 
5 | C/C(COc1ccccc1)=N\NC(N)=S | > 100 µM | > 100 µM | > 100 µM | > 100 µM | > 100 µM | > 100 µM |  |  |  |  |  |  |  |  |  |  |  | 
6 | O=Cc1cc2sc(C=O)cc2s1 | > 100 µM | > 100 µM | > 100 µM | > 100 µM | > 100 µM | > 100 µM |  |  |  |  |  |  |  |  |  |  |  | 
7 | Cn1cc(-c2nc(-c3c[nH]c4ccccc34)cs2)c2cccnc21 | 86.6 µM | > 100 µM | > 60.4 µM | 49.4 µM | 5.9 µM | 59.9 µM | 0.745 µM | 0.649 µM | 1.29 µM | > 100 µM | 0.756 µM | 0.424 µM | > 85.1 µM | 0.525 µM | 0.2 µM | 0.626 µM | 0.564 µM | > 100 µM
8 | Cc1cc(S(=O)(=O)Nc2nc3ccccc3s2)c(SCc2ccccc2)cc1Cl |  | 45.9 µM | 51.8 µM | 32.1 µM | 23.3 µM | > 100 µM |  | 19.4 µM | 16.9 µM | 37.7 µM | 13.2 µM | 20.2 µM | 62 µM | 16.9 µM | 8 µM | 31.6 µM | 15.5 µM | 36.9 µM
9 | CC(C)(C)c1cc([Si](C)(C)C)c(C#N)c([Si](C)(C)C)c1 | > 100 µM | > 100 µM | > 100 µM | > 100 µM | > 100 µM | > 100 µM |  |  |  |  |  |  |  |  |  |  |  | 
10 | CCn1c(C)nc([N+](=O)[O-])c1Sc1ncc[nH]1 | 93.8 µM | > 100 µM | > 100 µM | > 100 µM | > 100 µM | > 100 µM |  |  |  |  |  |  |  |  |  |  |  | 
11 | Cc1cc(NCCCCCCCCNc2cc(C)nc3cc(N(C)C)ccc23)c2ccc(N(C)C)cc2n1 |  | > 100 µM | 21.6 µM | 21 µM | 18.4 µM | 29 µM |  |  |  |  |  |  |  |  |  |  |  | 
12 | Clc1cc2ns[s+]c2cc1Cl | > 100 µM | > 91.7 µM | > 100 µM | > 100 µM | > 100 µM | > 81.7 µM |  |  |  |  |  |  |  |  |  |  |  | 
13 | O=C(NNC(=O)/C(=C/c1cccc([N+](=O)[O-])c1)NC(=O)c1ccccc1)Nc1ccc(Cl)cc1 | 30 µM | 27.3 µM | 26.9 µM | 29.1 µM | 25.4 µM | 29.6 µM |  |  |  |  |  |  |  |  |  |  |  | 
14 | [N-]=[N+]=NCCCn1c2c(c3ccccc3c1=O)C(=O)c1cc3c(cc1-2)OCO3 |  | > 100 µM |  | > 100 µM | > 100 µM | > 100 µM |  | > 100 µM | > 100 µM | > 100 µM |  | > 100 µM | > 100 µM | 31.9 µM | > 100 µM | 17.6 µM | 76 µM | > 100 µM
15 | CC1=NN(c2ccccc2)C(=O)C1N=Nc1ccc(Br)cc1C (stereo unspecified) | > 100 µM |  | > 100 µM | > 100 µM | > 100 µM | > 100 µM |  |  |  |  |  |  |  |  |  |  |  | 
16 | O=c1[nH]c(C2CCCCC2)nc2ccc(Cl)cc12 | > 100 µM | > 100 µM |  | > 100 µM | > 100 µM |  |  |  |  |  |  |  |  |  |  |  |  | 
17 | Fc1ccc(Nc2ccnc(N3CCN(c4ccnc5cc(Cl)ccc45)CC3)n2)cc1 |  | 4.54 µM | > 100 µM | 6.26 µM | 7.38 µM | 65.4 µM |  | 0.845 µM | 1.51 µM | 4.33 µM | 2.36 µM | 2.83 µM | 39 µM | 2.28 µM | 2.53 µM | 3.83 µM | 3.96 µM | 55.1 µM
18 | CN1C(=O)CC(CC(=O)C2CCCCC2=O)CC1=O (stereo unspecified) | > 100 µM | > 100 µM | > 100 µM | > 100 µM | > 100 µM | > 100 µM |  |  |  |  |  |  |  |  |  |  |  | 
19 | CCCCCCCC(=O)[O-].N.N.N.N.N.[Co+3].[O-][Cl+3]([O-])([O-])[O-] | > 100 µM | > 100 µM | > 100 µM | > 100 µM | > 100 µM | > 100 µM | > 100 µM | 90.6 µM |  |  | > 100 µM |  |  | > 100 µM | > 100 µM | > 100 µM |  | 
20 | COc1ccc(C2[C@@H](Cl)C(=O)N2c2ccc(OC)cc2)cc1 (stereo partly specified) | > 100 µM | > 100 µM |  | > 100 µM | > 100 µM |  |  |  |  |  |  |  |  |  |  |  |  | 
21 | O=S(=O)(O)c1ccc([Se][Se]c2ccc(S(=O)(=O)O)cc2)cc1 | > 100 µM | > 100 µM | > 100 µM | > 100 µM | > 100 µM | > 100 µM |  |  |  |  |  |  |  |  |  |  |  | 
